Assay results from US9663551B2, “Solanidine-derived compounds” (priority 2013, dated 2017).
Several values for one entry are separate records, joined by “and”; a condition that tells them apart may be missing. Equal values may be shown once.

Legend:
Format in all cases: in vivo
[1] = test system: Macrosiphum euphorbiae larvae; assay: Effects on larval survival (artificial medium feeding); conditions: for Percentage of larval survival: after 16 days of treatment; for aphicide activity on larvae compared with 0.2 mM solanidine: 0.002 mM; for aphicide properties with respect to larvae compared with solanidine: 0.02 mM
Protocol: (§1) The Macrosiphum euphorbiae population was initiated from an apterous female provided by the Laboratory of Functional Biology, Insects and Interactions of the INRA/INSA of Villeurbanne in 2004. She was captured in 1995 on an eggplant in the Rhone-Alps region. The Macrosiphum euphorbiae aphids were raised on Desiree variety potato plants indoors at 20±1° C., 60±5% relative humidity and under a photoperiod of 16 hours of light and 8 hours of darkness.
For the tests on Macrosiphum euphorbiae larvae, adults were isolated and placed in PVC cages on artificial medium for one day in order to synchronize their lineage. Neonates (40 per experiment), less than 24 hours old, are placed in PVC cages containing artificial medium alone (control experiment) or artificial medium supplemented with 0.002, 0.02 or 0.2 mM active compound.
(§2) The individuals were monitored every two days over a period of 16 days. With each recording, the artificial medium is changed. Each cage houses five aphids.
(§3) A standard diet was used as the basis for carrying out the physiological monitoring. Its composition was described by Febvay et al. (J. Zool. 1988, 66(11), 2449-2453) and then modified according to the conditions of Down et al. (J. Insect Physiol. 1996, 42(11-12), 1035-1045) as shown in Table 2. The medium is supplemented with active compound and placed between two layers of Parafilm® in sterile conditions.
(§4) The statistical analyses were performed using the Statistica 10 software (StatSoft®). To compare aphid survival in comparison with the control, Pearson's X^2 test (α<0.05) was applied. To compare the compounds in terms of concentration and nature, Fisher's least significant difference (LSD) test was applied (α<0.05). Daily fecundity was also studied using Fisher's LSD test (α<0.05).
The biological tests were carried out on Macrosiphum euphorbiae neonates less than 24 hours old. They are placed on artificial medium containing chaconine, solanine, solanidine, 100, 101 or 102.

[2] = test system: Macrosiphum euphorbiae adults; assay: Effects on adult survival (artificial medium feeding); conditions: for Percentage of adult survival: after 16 days of treatment
Protocol: as §1
(§5) For the tests on Macrosiphum euphorbiae adults, neonates (50 per experiment) resulting from synchronization are raised in petri dishes on leaves of Desiree variety potato plants for 10 days. Once the adult stage is reached, they are placed in PVC cages containing artificial medium alone (control experiment) or artificial medium supplemented with 0.002, 0.02 or 0.2 mM active compound.
as §2, §3, §4
The biological tests of compounds 100, 101 and 102 on Macrosiphum euphorbiae adults are presented in FIG. 2, and are compared to a control experiment.

[3] = test system: Macrosiphum euphorbiae reproduction; assay: Effects on reproduction (daily fecundity per aphid)
Protocol: as §5, §2, §4
Data regarding the number of larvae resulting from parthenogenesis can be used to calculate daily fecundity per aphid. The results are presented in FIG. 3, wherein the number 10 represents the control, the reference numbers 12, 14 and 16 represent the results of compound 100 at the concentrations of 0.002, 0.02 and 0.2 mM, respectively, the reference numbers 18, 20 and 22 represent the results of compound 101 at the concentrations of 0.002, 0.02 and 0.2 mM, respectively, the reference numbers 24, 26, and 28 represent the results of compound 102 at the concentrations of 0.002, 0.02 and 0.2 mM, respectively.

SMILES | Percentage of larval survival ([1]; 0.002 mM in artificial medium) | Percentage of larval survival ([1]; 0.02 mM in artificial medium) | Percentage of larval survival ([1]; 0.2 mM in artificial medium) | activity on adult survival in comparison with the control ([2]; 0.002 mM) | Percentage of adult survival ([2]; 0.002 mM in artificial medium) | activity on adult survival in comparison with the control ([2]; 0.02 mM) | Percentage of adult survival ([2]; 0.02 mM in artificial medium) | activity on adult survival in comparison with the control ([2]; 0.2 mM) | Percentage of adult survival ([2]; 0.2 mM in artificial medium) | mortality at 200 µM ([2]; Macrosiphum euphorbiae, 0.2 mM, read-out: mortality rate of adults) | effect on reproduction in comparison with the control ([3]; 0.02 mM) | effect on reproduction in comparison with the control ([3]; 0.2 mM) | aphicide activity on larvae compared with 0.2 mM solanidine [1] | aphicide properties with respect to larvae compared with solanidine [1]
C[C@H]1CC[C@@H]2[C@@H](C)[C@H]3[C@H](C[C@H]4[C@@H]5CC=C6C[C@@H](O[C@@H]7O[C@H](CO)[C@H](O[C@@H]8O[C@@H](C)[C@H](O)[C@@H](O)[C@H]8O)[C@H](O)[C@@H]7O[C@@H]7O[C@@H](C)[C@@H](O)[C@@H](O)[C@H]7O)CC[C@]6(C)[C@H]5CC[C@]34C)N2C1 [Chaconine, chaconine, reference compound] | 72a % | 70a % | 52b % | – | – | – | – | – | – | – | – | – | – | –
C[C@H]1CCC2[C@@H](C)C3C(CC4C5CC=C6C[C@@H](OCCCn7cc(CO[C@@H]8OC(CO)[C@@H](O)C(O)C8O)nn7)CC[C@]6(C)C5CC[C@@]43C)N2C1 (stereo partly drawn) [Compound 100, 3-O-{3-[4-(β-D-glucopyranosyloxymethyl)-1,2,3-triazol-1-yl]propyl}solanidine] | 76a % | 26% and 26b % | 22% and 22c % | no significant activity | 97a % | no significant activity | 81b % | notable effect | 46c % | 54% | significantly reduce reproduction | significantly reduce reproduction | lower activity than 0.2 mM solanidine | stronger than with solanidine
C[C@H]1CCC2[C@@H](C)C3C(CC4C5CC=C6C[C@@H](OCCCn7cc(CO[C@@H]8OC(CO)[C@H](O)C(O)C8O)nn7)CC[C@]6(C)C5CC[C@@]43C)N2C1 (stereo partly drawn) [Compound 101, 3-O-{3-[4-(β-D-galactopyranosyloxymethyl)-1,2,3-triazol-1-yl]propyl}solanidine] | 62a % | 33% and 33b % | 24% and 24c % | – | 90a % | drop in the survival rate | 73b % | drop in the survival rate | 54c % | – | significantly reduce reproduction | significantly reduce reproduction | lower activity than 0.2 mM solanidine | stronger than with solanidine
CC1O[C@@H](OCc2cn(CCCO[C@H]3CC[C@@]4(C)C(=CCC5C6CC7C([C@H](C)C8CC[C@H](C)CN78)[C@@]6(C)CCC54)C3)nn2)C(O)C(O)[C@H]1O (stereo partly drawn) [Compound 102, 3-O-{3-[4-(α-L-rhamnopyranosyloxymethyl)-1,2,3-triazol-1-yl]propyl}solanidine] | 84a % | 32% and 32b % | 6% and 6d % | no significant aphicide activity | 95a % | marked effect on the survival of adults | 67b % | marked effect on the survival of adults | 7d % | – | significantly reduce reproduction | significantly reduce reproduction | lower activity than 0.2 mM solanidine | stronger than with solanidine
C[C@H]1CC[C@@H]2[C@@H](C)[C@H]3[C@H](C[C@H]4[C@@H]5CC=C6C[C@@H](O)CC[C@]6(C)[C@H]5CC[C@]34C)N2C1 [Solanidine, solanidine] | 74a % | 60d % | 52b % | – | – | – | – | – | – | – | – | – | – | –
C[C@H]1CC[C@@H]2[C@@H](C)[C@H]3[C@H](C[C@H]4[C@@H]5CC=C6C[C@@H](O[C@@H]7O[C@H](CO)[C@H](O)[C@H](O[C@@H]8O[C@H](CO)[C@@H](O)[C@H](O)[C@H]8O)[C@H]7O[C@H]7O[C@@H](C)[C@H](O)[C@@H](O)[C@H]7O)CC[C@]6(C)[C@H]5CC[C@]34C)N2C1 [Solanine, solanine, reference compound] | 82a % | 80a % | 64c % | – | – | – | – | – | – | – | – | – | – | –
